Results on nine compounds are retold here after publication PMC3685872 (Bioorganic & medicinal chemistry, 2013).

Molecules are shown by their SMILES.

One series concerns CMV. Particulars: cited from earlier work.
The subject of series [1] is Jurkat T cell acute lymphoblastic leukemia cell line. The series is described as follows: Anti-leukemia AlamarBlue assay in Jurkat cells. Type of series: cell-based, human. The conditions noted are these: for loss in anti-leukemic potency compared to dimer 838 / loss in anti-leukemic potency compared to oxygenated counterpart: Jurkat cells; for loss in anti-leukemic potency compared to dimer 838: relative to 838; for loss in anti-leukemic potency compared to oxygenated counterpart: phosphoryl oxygen replaced with sulfur.

Series [2] has as its system PHA-stimulated peripheral blood mononuclear cells (PBMCs). The series is described as follows: Toxicity to nonmalignant PHA-stimulated PBMCs. Type of series: cell-based. Particulars: Homo sapiens, PBMC, 48 h, read-out: PHA-stimulated PBMC IC50.
The test system of series [3] is prostate cancer LNCaP cells. Particulars: compared with standard drug doxorubicin; ref [12]; cited from earlier work.

For `CO[C@H]1O[C@@H]2O[C@@]3(C)CC[C@H]4[C@H](C)CC[C@@H]([C@H]1C)[C@@]24OO3` [Artemether, artemether, reference compound], in the series with CMV (as previously determined, ref [9]), the “activity against CMV” value is on record as “weak activity”. For the same compound, in series [1] (Jurkat T-ALL cells, 48 hours of drug treatment, AlamarBlue, average of triplicate experiments), the “Anti-leukemia IC50” value is “essentially inactive”.

As for `C[C@H]1[C@@H](CC(COP(=O)(O)Oc2ccccc2)C[C@H]2O[C@@H]3O[C@@]4(C)CC[C@H]5[C@H](C)CC[C@@H]([C@H]2C)[C@@]35OO4)O[C@@H]2O[C@@]3(C)CC[C@H]4[C@H](C)CC[C@@H]1[C@@]24OO3` (stereo partly drawn) [compound 762, monophenylphosphate ester], the concentration for half-maximal inhibition (IC50) in series [2] is approximately 40 µM. In addition, the “loss in anti-leukemic potency compared to dimer 838” value (shortened to “loss … compared to dimer 838”) in series [1] amounted to 70 fold.

Consider `C[C@H]1[C@@H](CC(COP2(=O)Oc3ccccc3-c3ccccc3O2)C[C@H]2O[C@@H]3O[C@@]4(C)CC[C@H]5[C@H](C)CC[C@@H]([C@H]2C)[C@@]35OO4)O[C@@H]2O[C@@]3(C)CC[C@H]4[C@H](C)CC[C@@H]1[C@@]24OO3` (stereo partly drawn) [compound 836, dimer biphenylphosphate ester], for which the “loss … compared to dimer 838” value in series [1] is reported as “about half as efficacious”.

`C[C@H]1[C@@H](CC(COP(=O)(Oc2ccccc2)Oc2ccccc2)C[C@H]2O[C@@H]3O[C@@]4(C)CC[C@H]5[C@H](C)CC[C@@H]([C@H]2C)[C@@]35OO4)O[C@@H]2O[C@@]3(C)CC[C@H]4[C@H](C)CC[C@@H]1[C@@]24OO3` (stereo partly drawn) [compound 838, trioxane dimer diphenyl phosphate ester]: in series [3], the “potency at inhibiting growth of LNCaP cells” value was “more potent than the standard drug doxorubicin”. Also, the “selectivity index (anti-CMV/cytotoxicity)” value with CMV (ref [10]) is listed as “approximately 1500”.

Take `C[C@H]1[C@@H](CC(COP(=O)(OC2CCCCC2)OC2CCCCC2)C[C@H]2O[C@@H]3O[C@@]4(C)CC[C@H]5[C@H](C)CC[C@@H]([C@H]2C)[C@@]35OO4)O[C@@H]2O[C@@]3(C)CC[C@H]4[C@H](C)CC[C@@H]1[C@@]24OO3` (stereo partly drawn) [compound 851, dimer dicyclohexylphosphate ester]: the “loss … compared to dimer 838” value in series [1] was “about half as efficacious”.

Regarding `C[C@H]1[C@@H](CC(COP2(=S)Oc3ccccc3-c3ccccc3O2)C[C@H]2O[C@@H]3O[C@@]4(C)CC[C@H]5[C@H](C)CC[C@@H]([C@H]2C)[C@@]35OO4)O[C@@H]2O[C@@]3(C)CC[C@H]4[C@H](C)CC[C@@H]1[C@@]24OO3` (stereo partly drawn) [compound 853, dimer biphenylthiophosphate ester], in series [1], the “loss in anti-leukemic potency compared to oxygenated counterpart” value is listed as ~ 9 fold.

As for `C[C@H]1[C@@H](CC(COP(=S)(Oc2ccccc2)Oc2ccccc2)C[C@H]2O[C@@H]3O[C@@]4(C)CC[C@H]5[C@H](C)CC[C@@H]([C@H]2C)[C@@]35OO4)O[C@@H]2O[C@@]3(C)CC[C@H]4[C@H](C)CC[C@@H]1[C@@]24OO3` (stereo partly drawn) [compound 855, dimer diphenylthiophosphate ester], in series [1], the “loss in anti-leukemic potency compared to oxygenated counterpart” value was ~ 18 fold.

As to `Cc1cccc(C)c1OP(=O)(OCC(C[C@H]1O[C@@H]2O[C@@]3(C)CC[C@H]4[C@H](C)CC[C@@H]([C@H]1C)[C@@]24OO3)C[C@H]1O[C@@H]2O[C@@]3(C)CC[C@H]4[C@H](C)CC[C@@H]([C@H]1C)[C@@]24OO3)Oc1c(C)cccc1C` [compound 895, dimer bis-(2,6-dimethylphenyl)phosphate ester], the “loss … compared to dimer 838” value in series [1] is “comparable potency”.

For `CC(C)c1ccc(OP(=O)(OCC(C[C@H]2O[C@@H]3O[C@@]4(C)CC[C@H]5[C@H](C)CC[C@@H]([C@H]2C)[C@@]35OO4)C[C@H]2O[C@@H]3O[C@@]4(C)CC[C@H]5[C@H](C)CC[C@@H]([C@H]2C)[C@@]35OO4)Oc2ccc(C(C)C)cc2)cc1` [compound 923, dimer bis-(4-isopropylphenyl)phosphate ester], the “loss … compared to dimer 838” value in series [1] came out at 5 fold.
